# Laboratory results taken from US10844057B2, “Process for preparing JAK inhibitors and intermediates thereof” (priority 2018, dated 2020).
# Tests used:
# [1] = target: JAK1 (Homo sapiens (Human), UniProt P23458); assay: Biochemical JAK kinase assay (LanthaScreen), JAK1; details: converted from pIC50 using Cheng-Prusoff; ATP 25 μM
# Protocol: (§1) Assay 1: Biochemical JAK Kinase Assays
# (§2) A panel of four LanthaScreen JAK biochemical assays (JAK1, 2, 3 and Tyk2) were carried in a common kinase reaction buffer (50 mM HEPES, pH 7.5, 0.01% Brij-35, 10 mM MgCl2, and 1 mM EGTA). Recombinant GST-tagged JAK enzymes and a GFP-tagged STAT1 peptide substrate were obtained from Life Technologies.
# (§3) Serially diluted compounds were pre-incubated with each of the four JAK enzymes and the substrate in white 384-well microplates (Corning) at ambient temperature for 1 h. ATP was subsequently added to initiate the kinase reactions in 10 μL total volume, with 1% DMSO. […] Kinase reactions were allowed to proceed for 1 hour at ambient temperature before a 10 μL preparation of EDTA (10 mM final concentration) and Tb-anti-pSTAT1 (pTyr701) antibody (Life Technologies, 2 nM final concentration) in TR-FRET dilution buffer (Life Technologies) was added. The plates were allowed to incubate at ambient temperature for 1 h before being read on the EnVision reader (Perkin Elmer). Emission ratio signals (520 nm/495 nm) were recorded and utilized to calculate the percent inhibition values based on DMSO and background controls.
# (§4) For dose-response analysis, percent inhibition data were plotted vs. compound concentrations, and IC50 values were determined from a 4-parameter robust fit model with the Prism software (GraphPad Software). Results were expressed as pIC50 (negative logarithm of IC50) and subsequently converted to pKi (negative logarithm of dissociation constant, Ki) using the Cheng-Prusoff equation.
# [2] = target: JAK3 (Homo sapiens (Human), UniProt P52333); assay: Biochemical JAK kinase assay (LanthaScreen), JAK3; details: converted from pIC50 using Cheng-Prusoff; ATP 1.6 μM
# Protocol: as §1, §2, §3, §4
# [3] = test system: IL-2 stimulated STAT5 phosphorylation in Tall-1 human T cell line; assay: Inhibition of IL-2 stimulated pSTAT5 in Tall-1 T cells; assay type: cell-based; details: IL-2 300 ng/mL, pSTAT5 AlphaLisa, Tall-1 cells, read-out: Tall-1 pIC50 (converted)
# Protocol: Assay 2: Inhibition of IL-2 Stimulated pSTAT5 in Tall-1 T Cells
# The potency of test compounds for inhibition of interleukin-2 (IL-2) stimulated STAT5 phosphorylation was measured in the Tall-1 human T cell line (DSMZ) using AlphaLisa.
# Phosphorylated STAT5 was measured via the AlphaLISA SureFire Ultra pSTAT5 (Tyr694/699) kit (PerkinElmer).
# Compounds were serially diluted in DMSO and dispensed acoustically to empty wells. Assay media (phenol red-free DMEM (Life Technologies) supplemented with 10% FBS (ATCC)) was dispensed (4 μL/well) and plates shaken at 900 rpm for 10 mins. Cells were seeded at 45,000 cells/well in assay media (4 μL/well), and incubated at 37° C., 5% CO2 for 1 hour, followed by the addition of IL-2 (R&D Systems; final concentration 300 ng/mL) in pre-warmed assay media (4 μL) for 30 minutes. […] The lysate was shaken at 900 rpm for 10 minutes at room temperature (RT). Phosphorylated STAT5 was measured via the pSTAT5 AlphaLisa kit (PerkinElmer). Freshly prepared acceptor bead mixture was dispensed onto lysate (5 μL) under green filtered <100 lux light. Plates were shaken at 900 rpm for 2 mins, briefly spun down, and incubated for 2 hrs at RT in the dark. Donor beads were dispensed (5 μL) under green filtered <100 lux light. Plates were shaken at 900 rpm for 2 minutes, briefly spun down, and incubated overnight at RT in the dark. Luminescence was measured with excitation at 689 nm and emission at 570 nm using an EnVision plate reader (PerkinElmer) under green filtered <100 lux light.
# To determine the inhibitory potency of test compounds in response to IL-2, the average emission intensity of beads bound to pSTAT5 was measured in a human T cell line. IC50 values were determined from analysis of the inhibition curves of signal intensity versus compound concentration. Data are expressed as pIC50 (negative decadic logarithm IC50) values (mean±standard deviation).
# [4] = test system: TSLP-evoked TARC release in human peripheral blood mononuclear cells; assay: Inhibition of TSLP-evoked TARC release in human peripheral blood mononuclear cells; assay type: cell-based; details: human PBMC, 3 to 5 donors, TSLP 10 ng/mL, 48 hours, ELISA; read-out: pIC50 ± st. dev., inhibition of TSLP-evoked TARC release (converted)
# From the text: Assay 4: Inhibition of TSLP-Evoked TARC Release in Human Peripheral Blood Mononuclear Cells
# Thymic stromal lymphopoietin (TSLP) and thymus and activation-regulated chemokine (TARC) are overexpressed in asthmatic airways, and correlate with disease severity. In the lungs, TSLP may be released by bronchial epithelial cells in response to allergens and viral infections. TSLP signals through an IL-7Rα/TSLPR heterodimer found in a broad range of tissues and cell types, including epithelial cells, endothelial cells, neutrophils, macrophages, and mast cells. The binding of TSLP to its receptor induces a conformational change that activates JAK1 and JAK2 to phosphorylate various transcription factors, including STAT3 and STAT5. In immune cells, this triggers a cascade of intracellular events that result in cell proliferation, anti-apoptosis, dendritic cell migration, and production of Th2 cytokines and chemokines. In peripheral blood mononuclear cells (PBMC), TSLP has a proinflammatory effect by activating myeloid dendritic cells to attract and stimulate T cells, a process mediated by the chemoattractant TARC.
# The potencies of the test compounds were measured for inhibition of TARC release.
# PBMC aliquots (previously isolated from whole blood and frozen in aliquots at −80° C.) from 3 to 5 donors were thawed at 37° C. and added dropwise to 40 mL pre-warmed, sterile-filtered, complete RPMI media in 50 mL Falcon tubes. Cells were pelleted and resuspended in complete media at 2.24×10^6 cells/mL. […] Cells were allowed to rest for 1 hour at 37° C. with 5% CO2.
# Compounds were received as 10 mM stock solutions in DMSO. 3.7-fold serial dilutions were performed to generate 9 concentrations of test compound in DMSO at 300× the final assay test concentration. […] 95 μL of 0.2% DMSO in complete media was added to the untreated control wells. Cells were pre-treated with compound for 1 hour at 37° C. with 5% CO2 prior to stimulation.
# Immediately prior to use, an aliquot was thawed and prepared at 20× the final assay concentration in complete media. 10 μL of 20×TSLP was added to each well of PBMC, for a final assay concentration of 10 ng/mL. 10 μL of complete media was added to the unstimulated control wells. Cells were stimulated in the presence of compound for 48 hours at 37° C. with 5% CO2.
# Following stimulation, the cell culture supernatants were harvested and TARC levels were detected by enzyme-linked immunosorbent assay (ELISA), using Human CCL17/TARC Quantikine ELISA Kit (R&D Systems # DDN00) according to the manufacturer's instructions.
# For dose response analysis, the log [test compound (M)] was plotted versus the percent response values for each donor, and IC50 values were determined using a nonlinear regression analysis with GraphPad Prism Software using the 4-parameter sigmoidal dose-response algorithm with variable slope. Data are expressed as mean pIC50 (negative decadic logarithm IC50) values calculated from pIC50 values of individual donors and rounded to one decimal place.
# Chain of JAK1 (P23458 whole entry): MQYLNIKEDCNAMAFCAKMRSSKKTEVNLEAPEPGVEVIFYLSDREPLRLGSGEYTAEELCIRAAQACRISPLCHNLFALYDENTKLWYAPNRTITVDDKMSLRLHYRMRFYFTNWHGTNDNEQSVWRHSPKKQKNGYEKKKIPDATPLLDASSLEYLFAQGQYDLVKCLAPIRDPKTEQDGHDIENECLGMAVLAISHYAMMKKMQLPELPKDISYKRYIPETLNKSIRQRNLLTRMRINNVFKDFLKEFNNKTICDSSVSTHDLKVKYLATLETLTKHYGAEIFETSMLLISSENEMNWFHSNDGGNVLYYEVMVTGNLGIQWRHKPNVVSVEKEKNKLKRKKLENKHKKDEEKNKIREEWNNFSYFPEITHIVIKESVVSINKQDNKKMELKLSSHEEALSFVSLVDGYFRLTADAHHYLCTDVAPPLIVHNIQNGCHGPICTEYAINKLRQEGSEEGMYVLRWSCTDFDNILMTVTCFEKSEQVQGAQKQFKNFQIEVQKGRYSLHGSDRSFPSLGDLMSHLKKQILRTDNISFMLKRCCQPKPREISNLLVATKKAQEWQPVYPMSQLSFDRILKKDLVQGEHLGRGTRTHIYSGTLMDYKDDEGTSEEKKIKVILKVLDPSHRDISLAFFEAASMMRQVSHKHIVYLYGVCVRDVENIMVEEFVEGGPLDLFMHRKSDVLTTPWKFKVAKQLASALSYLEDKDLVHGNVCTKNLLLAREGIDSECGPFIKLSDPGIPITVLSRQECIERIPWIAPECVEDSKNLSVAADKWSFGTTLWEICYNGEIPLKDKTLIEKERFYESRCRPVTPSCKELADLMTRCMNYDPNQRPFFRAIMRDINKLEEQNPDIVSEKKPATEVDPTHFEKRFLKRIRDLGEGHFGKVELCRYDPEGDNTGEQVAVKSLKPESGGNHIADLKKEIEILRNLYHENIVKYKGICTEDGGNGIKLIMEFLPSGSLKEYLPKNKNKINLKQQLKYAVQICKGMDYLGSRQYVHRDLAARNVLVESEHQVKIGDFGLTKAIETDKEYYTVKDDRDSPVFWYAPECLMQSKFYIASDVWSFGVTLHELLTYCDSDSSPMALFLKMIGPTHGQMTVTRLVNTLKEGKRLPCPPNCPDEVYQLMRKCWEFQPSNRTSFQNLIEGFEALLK
# Chain of JAK3 (P52333 whole entry): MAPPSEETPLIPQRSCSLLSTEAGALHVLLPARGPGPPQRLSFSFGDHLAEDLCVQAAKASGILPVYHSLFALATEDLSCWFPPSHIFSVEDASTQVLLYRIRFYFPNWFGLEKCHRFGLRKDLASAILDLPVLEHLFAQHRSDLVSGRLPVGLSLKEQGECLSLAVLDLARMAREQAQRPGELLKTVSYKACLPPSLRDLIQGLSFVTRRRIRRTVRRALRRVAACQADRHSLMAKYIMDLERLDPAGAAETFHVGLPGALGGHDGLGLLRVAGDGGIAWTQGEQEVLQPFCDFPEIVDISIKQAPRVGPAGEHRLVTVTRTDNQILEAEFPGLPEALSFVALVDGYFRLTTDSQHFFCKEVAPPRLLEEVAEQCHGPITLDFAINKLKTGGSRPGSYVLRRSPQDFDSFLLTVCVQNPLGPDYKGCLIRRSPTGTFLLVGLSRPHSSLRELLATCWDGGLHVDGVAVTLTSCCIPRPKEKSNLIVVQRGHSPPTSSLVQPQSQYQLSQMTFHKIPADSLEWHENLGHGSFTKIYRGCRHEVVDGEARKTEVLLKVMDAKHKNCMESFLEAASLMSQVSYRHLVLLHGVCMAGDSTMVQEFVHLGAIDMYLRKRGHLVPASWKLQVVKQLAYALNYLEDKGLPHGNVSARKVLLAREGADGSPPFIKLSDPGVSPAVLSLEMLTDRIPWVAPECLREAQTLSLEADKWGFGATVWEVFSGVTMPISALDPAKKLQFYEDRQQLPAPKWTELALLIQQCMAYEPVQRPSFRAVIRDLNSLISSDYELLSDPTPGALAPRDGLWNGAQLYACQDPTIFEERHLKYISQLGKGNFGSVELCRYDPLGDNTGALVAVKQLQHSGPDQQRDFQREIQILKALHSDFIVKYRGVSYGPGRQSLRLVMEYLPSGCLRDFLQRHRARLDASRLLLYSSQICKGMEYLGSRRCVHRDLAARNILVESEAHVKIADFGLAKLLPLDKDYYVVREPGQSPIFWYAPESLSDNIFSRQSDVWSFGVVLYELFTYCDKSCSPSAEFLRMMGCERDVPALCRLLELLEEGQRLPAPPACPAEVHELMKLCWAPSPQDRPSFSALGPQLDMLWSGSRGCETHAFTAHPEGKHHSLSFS
smiles,measurement,setting,value
"CCc1cc(O)c(F)cc1-c1ccc2c(-c3nc4c([nH]3)CN(C(C)C)[C@H](C(=O)N3CC(N(C)C)C3)C4)n[nH]c2c1 [Example 8, (S)-(3-(dimethylamino)azetidin-1-yl)(2-(6-(2-ethyl-5-fluoro-4-hydroxyphenyl)-1H-indazol-3-yl)-5-isopropyl-4,5,6,7-tetrahydro-3H-imidazo[4,5-c]pyridin-6-yl)methanone]",JAK1 pKi,[1],10.4
same,JAK3 pKi,[2],10.1
same,IC50,[3],1.58 nM
same,IC50,[4],100 nM
